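GI50 = concentration required for 50% inhibition of growth. TGI is the concentration that stops growth completely.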
What was measured:
Assay in all cases: inhibition of tumour cell growth, NCI panel, 384-well format
[1] = tested on: A498 renal
[2] = tested on: A549 NSCLC
[3] = tested on: ACHN renal
[4] = tested on: BT-549 breast
[5] = tested on: CAKI-1 renal
[6] = tested on: CCRF-CEM leukemia
[7] = tested on: EKVX NSCLC
[8] = tested on: HCC-2998 colon
[9] = tested on: HCT-116 colon
[10] = tested on: HCT-15 colon
[11] = tested on: HL-60(TB) leukemia
[12] = tested on: HOP-62 NSCLC
[13] = tested on: HS 578T breast
[14] = tested on: HT29 colon
[15] = tested on: K-562 leukemia
[16] = tested on: KM12 colon
[17] = tested on: LOX IMVI melanoma
[18] = tested on: M14 melanoma
[19] = tested on: MALME-3M melanoma
[20] = tested on: MCF7 breast
[21] = tested on: MDA-MB-231 breast
[22] = tested on: MDA-MB-435 melanoma
[23] = tested on: MOLT-4 leukemia
[24] = tested on: NCI-H226 lung
[25] = tested on: NCI-H23 lung
[26] = tested on: NCI-H322M lung
[27] = tested on: NCI/ADR-RES ovarian
[28] = tested on: OVCAR-4 ovarian
[29] = tested on: OVCAR-5 ovarian
[30] = tested on: OVCAR-8 ovarian
[31] = tested on: SF-268 CNS
[32] = tested on: SF-295 CNS
[33] = tested on: SF-539 CNS
[34] = tested on: SK-MEL-2 melanoma
[35] = tested on: SK-MEL-28 melanoma
[36] = tested on: SK-MEL-5 melanoma
[37] = tested on: SK-OV-3 ovarian
[38] = tested on: SN12C renal
[39] = tested on: SNB-19 CNS
[40] = tested on: SNB-75 CNS
[41] = tested on: SR leukemia
[42] = tested on: SW-620 colon
[43] = tested on: T-47D breast
[44] = tested on: TK-10 renal
[45] = tested on: UACC-257 melanoma
[46] = tested on: UACC-62 melanoma
[47] = tested on: UO-31 renal

## O=C1Nc2ccc(I)cc2/C1=C/c1cc(Br)c(O)c(Br)c1
[1]
  GI50: 16 µM
  TGI: 30.7 µM
[2]
  GI50: 17.2 µM
  TGI: 46 µM
[3]
  GI50: 15.7 µM
  TGI: 35.7 µM
[4]
  GI50: 11.7 µM
  TGI: 26.8 µM
[5]
  GI50: 21.3 µM
  TGI: 43.9 µM
[6]
  GI50: 11.3 µM
  TGI: 23.4 µM
[7]
  GI50: 14.3 µM
  TGI: 30.2 µM
[8]
  GI50: 22.8 µM
  TGI: 38 µM
[9]
  GI50: 16.3 µM
  TGI: 30.4 µM
[10]
  GI50: 15.7 µM
  TGI: 30.6 µM
[11]
  GI50: 11.3 µM
  TGI: 23.4 µM
[12]
  GI50: 20.4 µM
  TGI: 39.9 µM
[13]
  GI50: 14.4 µM
  TGI: 28.5 µM
[14]
  GI50: 14.1 µM
  TGI: 31.1 µM
[15]
  GI50: 17 µM
  TGI: 31.1 µM
[16]
  GI50: 12.5 µM
  TGI: 27.6 µM
[17]
  GI50: 13 µM
  TGI: 29.4 µM
[18]
  GI50: 4.38 µM
  TGI: 18.6 µM
[19]
  GI50: 4.43 µM
  TGI: 20.8 µM
[20]
  GI50: 10.1 µM
  TGI: 25.3 µM
[21]
  GI50: 14 µM
  TGI: 31.7 µM
[22]
  GI50: 8.13 µM
  TGI: 29.1 µM
[23]
  GI50: 13.4 µM
  TGI: 26.2 µM
[24]
  GI50: 27.2 µM
  TGI: 68.5 µM
[25]
  GI50: 14.1 µM
  TGI: 27.6 µM
[26]
  GI50: 15.7 µM
  TGI: 39.6 µM
[27]
  GI50: 18 µM
  TGI: 43.5 µM
[28]
  GI50: 19.1 µM
  TGI: 47.1 µM
[29]
  GI50: 25.1 µM
  TGI: 65 µM
[30]
  GI50: 17.2 µM
  TGI: 37.4 µM
[31]
  GI50: 16.3 µM
  TGI: 52 µM
[32]
  GI50: 11.9 µM
  TGI: 34.2 µM
[33]
  GI50: 15.4 µM
  TGI: 30.1 µM
[34]
  GI50: 15.4 µM
  TGI: 30.7 µM
[35]
  GI50: 6.3 µM
  TGI: 34.8 µM
[36]
  GI50: 12.3 µM
  TGI: 24.8 µM
[37]
  GI50: 16.2 µM
  TGI: 34.8 µM
[38]
  GI50: 21.6 µM
  TGI: 48.5 µM
[39]
  GI50: 21.4 µM
  TGI: 56.3 µM
[40]
  GI50: 25.7 µM
  TGI: 51.8 µM
[41]
  GI50: 6.31 µM
  TGI: 18.8 µM
[42]
  GI50: 16.9 µM
  TGI: 31.4 µM
[43]
  GI50: 12.8 µM
  TGI: 30 µM
[44]
  GI50: 21.6 µM
  TGI: 78.1 µM
[45]
  GI50: 14.9 µM
  TGI: 33.3 µM
[46]
  GI50: 7.69 µM
  TGI: 21 µM
[47]
  GI50: 13.1 µM
  TGI: 28.2 µM
